# Reference: paper PMC5428509, “Irreversible inhibition of BTK kinase by a novel highly selective inhibitor CHMFL-BTK-11 suppresses inflammatory response in rheumatoid arthritis model” (Scientific Reports, 2017)
# Legend:
# Assay in all cases: biochemical
# Parameters in all cases: KinomeScan competition binding panel (DiscoveRx), percent of control at 1 uM
# Details in all cases: read-out: Percent Control
# [1] = target: T1, ABL1(F317I)-phosphorylated (Homo sapiens, UniProt P00519, F317I)
# T1 construct: phosphorylated
# Summary of the method: (§1)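 Selectivity profiled across 456 kinases/mutants by KinomeScan binding technology.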
# [2] = target: ACVR2A (Homo sapiens, UniProt P27037)
# Summary of the method: as §1
# [3] = target: CAMK1G (Homo sapiens, UniProt Q96NX5)
# Summary of the method: as §1
# [4] = target: CAMK2B (Homo sapiens, UniProt Q13554)
# Summary of the method: as §1
# [5] = target: CDKL2 (Homo sapiens, UniProt Q92772)
# Summary of the method: as §1
# [6] = target: CSF1R (Homo sapiens, UniProt P07333)
# Summary of the method: as §1
# [7] = target: EPHB4 (Homo sapiens, UniProt P54760)
# Summary of the method: as §1
# [8] = target: ERBB2 (Homo sapiens, UniProt P04626)
# Summary of the method: as §1
# [9] = target: T2, FAK (Homo sapiens, UniProt Q05397)
# T2 construct: gene PTK2
# Summary of the method: as §1
# [10] = target: FYN (Homo sapiens, UniProt P06241)
# Summary of the method: as §1
# [11] = target: HUNK (Homo sapiens, UniProt P57058)
# Summary of the method: as §1
# [12] = target: IRAK3 (Homo sapiens, UniProt Q9Y616)
# Summary of the method: as §1
# [13] = target: KIT(A829P) (Homo sapiens, UniProt P10721, A829P)
# Summary of the method: as §1
# [14] = target: T3, LKB1 (Homo sapiens, UniProt Q15831)
# T3 construct: gene STK11
# Summary of the method: as §1
# [15] = target: LRRK2 (Homo sapiens, UniProt Q5S007)
# Summary of the method: as §1
# [16] = target: LYN (Homo sapiens, UniProt P07948)
# Summary of the method: as §1
# [17] = target: T4, MEK2 (Homo sapiens, UniProt P36507)
# T4 construct: gene MAP2K2
# Summary of the method: as §1
# [18] = target: T5, OSR1 (Homo sapiens, UniProt O95747)
# T5 construct: gene OXSR1
# Summary of the method: as §1
# [19] = target: PIK3CD (Homo sapiens, UniProt O00329)
# Summary of the method: as §1
# [20] = target: T6, PKAC-alpha (Homo sapiens, UniProt P17612)
# T6 construct: gene PRKACA
# Summary of the method: as §1
# [21] = target: PRKCD (Homo sapiens, UniProt Q05655)
# Summary of the method: as §1
# [22] = target: RIPK2 (Homo sapiens, UniProt O43353)
# Summary of the method: as §1
# [23] = target: ROCK2 (Homo sapiens, UniProt O75116)
# Summary of the method: as §1
# [24] = target: SGK3 (Homo sapiens, UniProt Q96BR1)
# Summary of the method: as §1
# [25] = target: TAOK3 (Homo sapiens, UniProt Q9H2K8)
# Summary of the method: as §1
# Sequence of ACVR2A (P27037 whole entry): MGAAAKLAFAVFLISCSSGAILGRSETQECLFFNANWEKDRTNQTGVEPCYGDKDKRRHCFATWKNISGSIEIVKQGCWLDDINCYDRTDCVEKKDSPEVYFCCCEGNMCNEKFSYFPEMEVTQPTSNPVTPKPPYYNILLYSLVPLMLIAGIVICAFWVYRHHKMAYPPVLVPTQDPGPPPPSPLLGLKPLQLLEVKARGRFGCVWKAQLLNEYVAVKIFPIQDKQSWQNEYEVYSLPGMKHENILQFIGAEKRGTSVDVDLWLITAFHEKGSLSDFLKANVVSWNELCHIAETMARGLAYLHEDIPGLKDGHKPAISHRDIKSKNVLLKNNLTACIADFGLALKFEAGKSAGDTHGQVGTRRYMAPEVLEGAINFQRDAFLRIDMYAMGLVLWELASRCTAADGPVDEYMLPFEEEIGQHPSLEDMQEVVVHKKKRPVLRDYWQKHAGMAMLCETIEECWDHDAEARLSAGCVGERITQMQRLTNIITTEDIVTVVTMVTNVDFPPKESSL
# T2 sequence (Q05397 whole entry): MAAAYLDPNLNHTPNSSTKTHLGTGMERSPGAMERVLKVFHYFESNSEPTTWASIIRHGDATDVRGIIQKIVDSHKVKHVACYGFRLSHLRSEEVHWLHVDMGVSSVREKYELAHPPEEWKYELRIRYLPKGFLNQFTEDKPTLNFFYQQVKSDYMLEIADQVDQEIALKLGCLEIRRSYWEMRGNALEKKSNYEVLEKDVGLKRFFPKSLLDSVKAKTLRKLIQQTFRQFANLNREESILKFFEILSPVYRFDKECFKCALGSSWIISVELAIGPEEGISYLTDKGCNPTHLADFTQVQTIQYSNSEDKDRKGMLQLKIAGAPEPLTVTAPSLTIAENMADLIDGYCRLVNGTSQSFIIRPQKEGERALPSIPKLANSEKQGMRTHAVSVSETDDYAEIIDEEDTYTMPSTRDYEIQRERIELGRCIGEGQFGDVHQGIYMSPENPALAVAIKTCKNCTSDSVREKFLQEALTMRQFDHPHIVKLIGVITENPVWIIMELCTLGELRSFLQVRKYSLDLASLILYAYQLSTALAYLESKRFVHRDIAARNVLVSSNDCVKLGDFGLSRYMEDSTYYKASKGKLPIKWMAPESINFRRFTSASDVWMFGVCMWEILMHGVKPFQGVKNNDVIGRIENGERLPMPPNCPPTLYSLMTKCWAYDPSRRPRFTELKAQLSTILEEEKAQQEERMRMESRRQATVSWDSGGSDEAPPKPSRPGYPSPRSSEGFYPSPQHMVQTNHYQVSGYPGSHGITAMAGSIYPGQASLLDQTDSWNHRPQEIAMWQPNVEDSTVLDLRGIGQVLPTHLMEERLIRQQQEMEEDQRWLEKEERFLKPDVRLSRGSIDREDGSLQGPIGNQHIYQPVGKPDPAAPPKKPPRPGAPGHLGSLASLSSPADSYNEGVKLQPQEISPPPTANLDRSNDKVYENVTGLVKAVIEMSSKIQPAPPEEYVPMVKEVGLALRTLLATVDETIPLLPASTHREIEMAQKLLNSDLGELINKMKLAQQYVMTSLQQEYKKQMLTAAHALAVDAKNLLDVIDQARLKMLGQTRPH
# Sequence of LYN (P07948 whole entry): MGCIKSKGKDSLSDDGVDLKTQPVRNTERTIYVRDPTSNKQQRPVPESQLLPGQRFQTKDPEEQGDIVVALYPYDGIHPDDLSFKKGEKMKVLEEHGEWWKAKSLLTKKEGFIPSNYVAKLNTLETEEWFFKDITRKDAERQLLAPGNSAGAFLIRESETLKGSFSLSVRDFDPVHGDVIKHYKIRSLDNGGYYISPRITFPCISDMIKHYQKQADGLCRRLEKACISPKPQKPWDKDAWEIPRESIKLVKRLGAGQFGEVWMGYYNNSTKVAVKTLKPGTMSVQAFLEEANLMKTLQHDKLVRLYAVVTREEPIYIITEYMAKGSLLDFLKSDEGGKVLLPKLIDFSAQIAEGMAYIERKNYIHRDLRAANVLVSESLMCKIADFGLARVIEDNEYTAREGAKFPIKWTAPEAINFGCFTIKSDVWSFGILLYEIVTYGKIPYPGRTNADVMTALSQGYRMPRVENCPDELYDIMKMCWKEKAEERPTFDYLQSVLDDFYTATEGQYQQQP
# Sequence of TAOK3 (Q9H2K8 whole entry): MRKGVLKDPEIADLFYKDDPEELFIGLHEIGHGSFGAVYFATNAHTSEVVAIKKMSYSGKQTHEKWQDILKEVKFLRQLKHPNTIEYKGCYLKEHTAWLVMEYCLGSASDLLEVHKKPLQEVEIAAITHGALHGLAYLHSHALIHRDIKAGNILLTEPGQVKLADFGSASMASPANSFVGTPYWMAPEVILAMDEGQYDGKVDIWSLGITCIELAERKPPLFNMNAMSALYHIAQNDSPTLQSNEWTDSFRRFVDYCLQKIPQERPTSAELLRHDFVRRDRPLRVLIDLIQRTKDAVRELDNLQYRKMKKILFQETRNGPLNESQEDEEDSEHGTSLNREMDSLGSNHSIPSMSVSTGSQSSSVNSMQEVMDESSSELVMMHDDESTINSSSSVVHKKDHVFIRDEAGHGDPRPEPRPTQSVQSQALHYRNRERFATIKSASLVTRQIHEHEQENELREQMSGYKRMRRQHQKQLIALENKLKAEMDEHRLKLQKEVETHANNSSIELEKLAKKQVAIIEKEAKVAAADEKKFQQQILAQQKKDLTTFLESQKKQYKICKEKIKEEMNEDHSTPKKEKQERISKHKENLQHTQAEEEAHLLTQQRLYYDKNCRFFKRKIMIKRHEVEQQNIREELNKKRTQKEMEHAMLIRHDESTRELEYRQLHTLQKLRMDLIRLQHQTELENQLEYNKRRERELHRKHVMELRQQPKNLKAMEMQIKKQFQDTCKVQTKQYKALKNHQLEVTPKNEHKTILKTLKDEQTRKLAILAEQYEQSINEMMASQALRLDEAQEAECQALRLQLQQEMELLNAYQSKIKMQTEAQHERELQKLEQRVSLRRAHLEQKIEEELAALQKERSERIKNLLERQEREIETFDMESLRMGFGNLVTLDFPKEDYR
# T1 sequence (P00519 whole entry F317I): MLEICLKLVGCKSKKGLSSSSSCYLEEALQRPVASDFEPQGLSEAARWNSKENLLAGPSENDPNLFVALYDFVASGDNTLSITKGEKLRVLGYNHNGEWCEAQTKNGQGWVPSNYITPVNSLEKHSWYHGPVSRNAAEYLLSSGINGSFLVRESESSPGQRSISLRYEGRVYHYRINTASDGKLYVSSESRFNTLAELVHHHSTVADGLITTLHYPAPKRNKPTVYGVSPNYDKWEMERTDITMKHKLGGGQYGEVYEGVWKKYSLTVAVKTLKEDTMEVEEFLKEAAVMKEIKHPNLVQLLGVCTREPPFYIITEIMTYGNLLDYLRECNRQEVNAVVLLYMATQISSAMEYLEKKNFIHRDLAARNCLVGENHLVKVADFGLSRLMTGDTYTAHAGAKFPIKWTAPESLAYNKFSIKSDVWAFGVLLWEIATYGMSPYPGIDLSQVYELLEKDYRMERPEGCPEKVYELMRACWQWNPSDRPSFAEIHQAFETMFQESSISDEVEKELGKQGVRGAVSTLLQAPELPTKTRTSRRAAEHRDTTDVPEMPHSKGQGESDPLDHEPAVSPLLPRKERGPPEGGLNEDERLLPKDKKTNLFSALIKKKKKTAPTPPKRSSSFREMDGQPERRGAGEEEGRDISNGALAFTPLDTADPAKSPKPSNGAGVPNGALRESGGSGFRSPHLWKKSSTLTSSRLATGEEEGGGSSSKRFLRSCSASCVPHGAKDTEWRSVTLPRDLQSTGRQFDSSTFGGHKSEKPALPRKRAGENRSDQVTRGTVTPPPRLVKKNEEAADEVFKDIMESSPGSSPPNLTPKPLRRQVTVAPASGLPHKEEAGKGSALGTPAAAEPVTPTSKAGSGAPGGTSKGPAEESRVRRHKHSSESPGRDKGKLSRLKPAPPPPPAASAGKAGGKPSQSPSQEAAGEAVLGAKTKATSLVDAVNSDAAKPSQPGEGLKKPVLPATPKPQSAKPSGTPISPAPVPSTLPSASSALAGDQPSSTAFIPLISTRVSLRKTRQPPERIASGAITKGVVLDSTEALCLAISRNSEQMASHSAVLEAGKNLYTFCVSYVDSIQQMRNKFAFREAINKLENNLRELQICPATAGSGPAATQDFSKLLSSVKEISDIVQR
# Sequence of CAMK2B (Q13554 whole entry): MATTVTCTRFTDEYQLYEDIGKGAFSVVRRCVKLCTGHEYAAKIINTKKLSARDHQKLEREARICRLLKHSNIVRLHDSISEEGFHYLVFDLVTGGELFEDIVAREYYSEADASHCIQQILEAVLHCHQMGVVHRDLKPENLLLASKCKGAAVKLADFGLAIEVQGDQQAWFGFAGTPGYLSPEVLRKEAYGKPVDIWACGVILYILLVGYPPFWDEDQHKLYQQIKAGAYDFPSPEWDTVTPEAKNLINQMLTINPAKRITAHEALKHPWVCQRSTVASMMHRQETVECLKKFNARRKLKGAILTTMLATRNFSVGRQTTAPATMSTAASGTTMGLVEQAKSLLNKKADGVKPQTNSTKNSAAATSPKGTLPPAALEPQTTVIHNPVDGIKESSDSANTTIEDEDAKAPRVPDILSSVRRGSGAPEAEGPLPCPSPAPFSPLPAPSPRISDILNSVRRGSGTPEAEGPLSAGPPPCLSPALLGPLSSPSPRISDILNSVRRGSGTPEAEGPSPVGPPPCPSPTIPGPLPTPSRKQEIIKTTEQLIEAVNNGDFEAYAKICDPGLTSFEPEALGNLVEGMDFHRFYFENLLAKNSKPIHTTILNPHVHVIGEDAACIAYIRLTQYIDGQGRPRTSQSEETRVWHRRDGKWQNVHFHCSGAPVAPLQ
compound,measurement,setting,value
C=CC(=O)Nc1cc(-n2c(=O)ccc3cnc4ccc(-n5cccn5)cc4c32)ccc1C [CHMFL-BTK-11],remaining binding at 1 µM,[1],100%
same,remaining binding at 1 µM,[2],100%
same,remaining binding at 1 µM,[3],84%
same,remaining binding at 1 µM,[4],100%
same,remaining binding at 1 µM,[5],81%
same,remaining binding at 1 µM,[6],91%
same,remaining binding at 1 µM,[7],100%
same,remaining binding at 1 µM,[8],98%
same,remaining binding at 1 µM,[9],100%
same,remaining binding at 1 µM,[10],99%
same,remaining binding at 1 µM,[11],86%
same,remaining binding at 1 µM,[12],98%
same,remaining binding at 1 µM,[13],98%
same,remaining binding at 1 µM,[14],91%
same,remaining binding at 1 µM,[15],96%
same,remaining binding at 1 µM,[16],94%
same,remaining binding at 1 µM,[17],92%
same,remaining binding at 1 µM,[18],96%
same,remaining binding at 1 µM,[19],100%
same,remaining binding at 1 µM,[20],98%
same,remaining binding at 1 µM,[21],86%
same,remaining binding at 1 µM,[22],100%
same,remaining binding at 1 µM,[23],97%
same,remaining binding at 1 µM,[24],86%
same,remaining binding at 1 µM,[25],93%
